Assay results as given in US20150011528A1, “PHENYLIMIDE-CONTAINING BENZOTHIAZOLE DERIVATIVE OF ITS SALT AND PHARMACEUTICAL COMPOSITION COMPRISING THE SAME” (YUHAN CORPORATION, priority 2011, published 2015).

Assays:
Assay type in all cases: cell-based
[1] = target: T1, interaction between the KRS protein and the laminin receptor (LR) (Homo sapiens, UniProt Q15046); assay: Yeast Two Hybrid inhibition of the interaction between the KRS protein and the laminin receptor (LR); conditions: 1 μL of 20 mM DMSO solution per 200 μL culture; 30° C., 6 days; absorbance 540 nm; non-treated control = 100%
T1 construct: expressed in transfected cells; host or cells: yeast EGY/SH cells
T1 sequence (Q15046 whole entry): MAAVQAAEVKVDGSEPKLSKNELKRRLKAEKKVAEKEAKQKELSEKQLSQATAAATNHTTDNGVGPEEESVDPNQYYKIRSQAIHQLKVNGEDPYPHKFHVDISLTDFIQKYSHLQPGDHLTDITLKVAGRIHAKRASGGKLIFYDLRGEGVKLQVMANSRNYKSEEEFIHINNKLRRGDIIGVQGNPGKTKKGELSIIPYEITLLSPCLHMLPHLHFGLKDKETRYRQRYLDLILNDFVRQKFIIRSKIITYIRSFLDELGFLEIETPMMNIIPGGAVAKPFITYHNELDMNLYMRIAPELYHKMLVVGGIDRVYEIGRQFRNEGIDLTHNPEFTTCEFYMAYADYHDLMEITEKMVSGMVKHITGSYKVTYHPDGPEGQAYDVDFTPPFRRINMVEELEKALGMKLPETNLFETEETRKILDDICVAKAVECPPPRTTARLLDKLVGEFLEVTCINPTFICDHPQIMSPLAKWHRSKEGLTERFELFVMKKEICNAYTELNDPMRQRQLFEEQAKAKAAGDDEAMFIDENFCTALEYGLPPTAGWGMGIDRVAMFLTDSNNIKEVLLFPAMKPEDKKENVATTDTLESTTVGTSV
Method: The inhibitory activity against the interaction between the KRS protein and the laminin receptor (LR) was evaluated according to the Yeast Two Hybrid method described in WO2011/056021. According to the disclosures of WO2011/056021, we prepared a vector obtained by cloning the KRS gene in the LexA vector (Clontech) and a vector obtained by cloning the LR gene in the B42 vector (Clontech). The yeast cells, i.e., EGY/SH cells were co-transformed with the LexA-KRS vector and the B42-LR vector. The co-transformation was carried out using the Yeastmaker yeast transformation system2 kit (Clontech), according to the manufacturer's instruction. […] The cultured yeast cells were diluted with the said galactose medium, until the absorbance at 540 nm attains to about 0.15 to 0.2. The diluted culture (200 μL), containing the yeast cells, was added to each well of a 96-well plate. Each test compound was dissolved in dimethyl sulfoxide at a concentration of 20 mM and then the resulting solutions (1 μL) were added to each well. The plate was cultured at 30° C. for 6 days and then the absorbance of the each well was measured at 540 nm.
(§1) And also, specificity of the inhibitory activity was evaluated, using the yeast cells cotransformed with the LexA-KRS vector and the B42-AIMP2 vector; and the yeast cells co-transformed with the LexA-KRS vector and the B42-AIMP3 vector, which were respectively prepared according to WO2011/056021. The co-transformation was carried out using the Yeastmaker yeast transformation system2 kit (Clontech), according to the manufacturer's instruction. […] The cultured yeast cells were diluted with the said galactose medium, until the absorbance at 540 nm attains to about 0.15 to 0.2. The diluted culture (200 μL), containing the yeast cells, was added to each well of a 96-well plate. Each test compound was dissolved in dimethyl sulfoxide at a concentration of 20 mM and then the resulting solutions (1 μL) were added to each well. The plate was cultured at 30° C. for 6 days and then the absorbance of each well was measured at 540 nm. The respective yeast cell proliferation rates (%) in the treated samples were calculated in comparison with those of the non-treated control (100%) and the results thereof are shown in Table 1 below.
When KRS is bound to LR, the trans-activation domain is come close to the DNA-binding domain and the genes for synthesizing essential amino acids are expressed, which leads to normal growth of the transformed yeasts, thereby increasing the absorbance.

A549 cells = assay: Cell Migration Assay (transwell, laminin); conditions: Homo sapiens, laminin 10 μg/mL in lower well, test compounds 0.39˜100 μM, 6 hours at 37° C.
Method: Cell migration was measured with a 24-well transwell having a polycarbonate membrane (8.0 μm pore size, Costar) at the bottom of the upper chamber. Each lower well was treated with laminin (10 μg/mL) and test compounds (0.39˜100 μM) along with a serum-free RPMI1640 medium. A549 cells (Korean Cell Line Bank) were suspended in a serum-free RPMI1640 medium at a concentration of 1×10^6 cells/mL and then the test compounds were added thereto at the indicated concentrations. Each resulting solution (100 μL) was added to the upper chamber. The cells were cultured at 37° C. for 6 hours in a CO2 incubator. The upper chamber was taken out and then the cells were fixed with PBS containing 70% methyl alcohol for 10 minutes, followed by washing with PBS twice. The cells were stained with hematoxylin (Sigma) for 10 minutes and then washed with distilled water. The non-migrated cells were removed from the upper portion of the polycarbonate membrane with a cotton swab. The membranes were excised and separated from the chamber, and then mounted to a slide using a gel mount reagent (Biomeda, USA). The migrated cells (attached to the lower face of the membrane) were counted at three randomly selected sites under a microscope (×20). The cell counting was performed with the Image J program. From the counted cell numbers, each IC50 value was calculated by non-linear regression curve fit using the “GraphPad Prism” program.
The cells are pulled by laminin residing in the lower chamber and then passed through the polycarbonate membrane, so as to attach to the lower face of the membrane.

[2] = target: T2, binding between KRS and AIMP2 (Homo sapiens, UniProt Q15046); assay: Yeast Two Hybrid specificity test, LexA-KRS / B42-AIMP2 co-transformed yeast cells; conditions: 1 μL of 20 mM DMSO solution per 200 μL culture; 30° C., 6 days; absorbance 540 nm; non-treated control = 100%
T2 construct: expressed in transfected cells; host or cells: yeast cells (co-transformed)
T2 sequence (Q15046 whole entry): as above
Method: as §1

[3] = target: T3, binding between KRS and AIMP3 (Homo sapiens, UniProt Q15046); assay: Yeast Two Hybrid specificity test, LexA-KRS / B42-AIMP3 co-transformed yeast cells; conditions: 1 μL of 20 mM DMSO solution per 200 μL culture; 30° C., 6 days; absorbance 540 nm; non-treated control = 100%
T3 construct: expressed in transfected cells; host or cells: yeast cells (co-transformed)
T3 sequence (Q15046 whole entry): as above
Method: as §1

| Structure (SMILES) | Yeast cell proliferation rates KRS-LR (%) [1] [%] | IC50 (A549 cells) [µM] | Yeast cell proliferation rates KRS-AIMP2 (%) [2] [%] | Yeast cell proliferation rates KRS-AIMP3 (%) [3] [%] |
| --- | --- | --- | --- | --- |
| CCC(C(=O)O)n1c(=NC(=O)c2cccc(Cl)c2)sc2ccccc21 (stereo not shown) [Example 139, 2-[2-(3-chlorobenzoylimino)benzo[d]thiazol-3(2H)-yl]butanoic acid] | 31.5 | 18.9 | 79.4 | 102.1 |
| CCC(C(=O)O)n1c(=NC(=O)c2cccc(Cl)c2)sc2c(F)c(Cl)ccc21 (stereo not shown) [Example 386, 2-(6-chloro-2-((3-chlorobenzoyl)imino)-7-fluorobenzo[d]thiazol-3(2H)-yl)butanoic acid] | 11.2 | 8.3 | 103.9 | 106.3 |
| CC(C(=O)O)n1c(=NC(=O)c2cccc(Cl)c2)sc2c(F)c(Cl)ccc21 (stereo not shown) [Example 385, 2-(6-chloro-2-((3-chlorobenzoyl)imino)-7-fluorobenzo[d]thiazol-3(2H)-yl)propionic acid] | 11.6 | 25.4 | 108.2 | 99.1 |
| Cc1ccc2c(sc(=NC(=O)c3cccc(Cl)c3)n2C(C)C(=O)O)c1F (stereo not shown) [Example 424, 2-(2-((3-chlorobenzoyl)imino)-7-fluoro-6-methylbenzo[d]thiazol-3(2H)-yl)propionic acid] | 15.6 | 78 | 99.9 | 104.6 |
| CCC(C(=O)O)n1c(=NC(=O)c2ccc(C(F)(F)F)cc2)sc2ccccc21 (stereo not shown) [Example 64, 2-{2-[4-(trifluoromethyl)benzoylimino]benzo[d]thiazol-3(2H)-yl}butanoic acid] | 28.8 | 20.1 | 99.2 | 104.1 |
| CCOc1ccc2c(c1)sc(=NC(=O)c1cccc(Cl)c1)n2C(C)C(=O)O (stereo not shown) [Example 55, 2-{2-[(3-chlorobenzoyl)imino]-6-ethoxybenzo[d]thiazol-3(2H)-yl}propionic acid] | 41.4 | 22 | 106.0 | 105.3 |
| CCC(C(=O)O)n1c(=NC(=O)c2ccc(C)cc2)sc2cc(C(F)(F)F)ccc21 (stereo not shown) [Example 155, 2-[2-(4-methylbenzoylimino)-6-(trifluoromethyl)benzo[d]thiazol-3(2H)-yl]butanoic acid] | 29.7 | 16.7 | 102.4 | 100.0 |
| O=C(O)Cn1c(=NC(=O)c2cccc(Cl)c2)sc2ccc(Cl)cc21 [Example 312, 2-(5-chloro-2-(3-chlorobenzoylimino)benzo[d]thiazol-3(2H)-yl)acetic acid] | 14.6 | 36 | 89.6 | 99.0 |
| CCC(C(=O)O)n1c(=NC(=O)c2cccc(Cl)c2)sc2c(F)c(F)ccc21 (stereo not shown) [Example 338, 2-(2-((3-chlorobenzoyl)imino)-6,7-difluorobenzo[d]thiazol-3(2H)-yl)butanoic acid] | 12.6 | 81.3 | 104.0 | 107.2 |
| CC(C(=O)O)n1c(=NC(=O)c2cccc(C(F)(F)F)c2)sc2ccccc21 (stereo not shown) [Example 133, 2-{2-[3-(trifluoromethyl)benzoylimino]benzo[d]thiazol-3(2H)-yl}propionic acid] | 33.2 | 11.4 | 82.1 | 92.8 |
| CCC(C(=O)O)n1c(=NC(=O)c2cccc(Cl)c2)sc2cc(C)ccc21 (stereo not shown) [Example 59, 2-{2-[(3-chlorobenzoyl)imino]-6-methylbenzo[d]thiazol-3(2H)-yl}butanoic acid] | 31.7 | 29.6 | 97.7 | 80.8 |
| Cc1ccc(C(=O)N=c2sc3c(Cl)cccc3n2C(C)C(=O)O)cc1 (stereo not shown) [Example 109, 2-[7-chloro-2-(4-methylbenzoylimino)benzo[d]thiazol-3(2H)-yl]propionic acid] | 30.2 | 57 | 102.0 | 98.2 |
| CC(C(=O)O)n1c(=NC(=O)c2cccc(C(F)(F)F)c2)sc2c(F)cc(F)cc21 (stereo not shown) [Example 458, 2-(5,7-difluoro-2-((3-(trifluoromethyl)benzoyl)imino)benzo[d]thiazol-3(2H)-yl)propionic acid] | 30.8 | 61 | 96.4 | 100.0 |
| CCC(C(=O)O)n1c(=NC(=O)c2ccc(C)cc2)sc2c(F)c(F)ccc21 (stereo not shown) [Example 335, 2-(6,7-difluoro-2-((4-methylbenzoyl)imino)benzo[d]thiazol-3(2H)-yl)butanoic acid] | 10.8 |  | 101.6 | 105.3 |
| CCC(C(=O)O)n1c(=NC(=O)c2cccc(Cl)c2)sc2c(C)cccc21 (stereo not shown) [Example 354, 2-(2-((3-chlorobenzoyl)imino)-7-methylbenzo[d]thiazol-3(2H)-yl)butanoic acid] | 30.2 |  | 103.0 | 106.4 |
| CCC(C(=O)O)n1c(=NC(=O)c2ccc(C)cc2)sc2cccc(OC)c21 (stereo not shown) [Example 8, 2-{4-methoxy-2-[(4-methylbenzoyl)imino]benzo[d]thiazol-3(2H)-yl}butanoic acid] | 17.4 |  | 84.6 | 84.1 |
| CC(C(=O)O)n1c(=NC(=O)c2cccc(C(F)(F)F)c2)sc2ccc(F)cc21 (stereo not shown) [Example 355, 2-(5-fluoro-2-((3-(trifluoromethyl)benzoyl)imino)benzo[d]thiazol-3(2H)-yl)propionic acid] | 22.1 |  | 97.2 | 104.4 |
